Measurements: patent US5212170A, “Psychotropic piperidinylmethyl benzodioxans” (American Home Products Corporation, priority 1992, dated 1993)

Experiments:
5-HT1A receptor site = details: cited from earlier work
[1] = test system: 5-HT1A serotonin receptor subtype; details: standard for anxiolytic activity; cited from earlier work
dopamine D-2 receptor = molecular target: T1, dopamine D-2 receptor (Rattus norvegicus, UniProt P61169); assay: D-2 Binding (3H-spiroperidol, homogenized limbic brain tissue)
T1 construct: from tissue; host or cells: homogenized limbic brain tissue
Experimental: High affinity for the dopamine D-2 receptor was established by the standard experimental test procedure of Fields, et al., Brain Res., 136, 578 (1977) and Yamamura et al., eds., Neurotransmitter Receptor Binding, Raven Press, N.Y. (1978) wherein homogenized limbic brain tissue is incubated with ^3 H-spiroperidol and various concentrations of test compound, filtered and washed and shaken with Hydrofluor scintillation cocktail (National Diagnostics) and counted in a Packard 460 CD scintillation counter.

[2] = molecular target: T2, serotonin 5-HT1A receptor (Rattus norvegicus, UniProt P19327); assay: 5-HT1A Binding (displacement of [3H] 8-OHDPAT)
T2 construct: following the procedure of Hall et al., J. Neurochem; 44, 1685 (1985); from tissue
T2 sequence (P19327 1-422): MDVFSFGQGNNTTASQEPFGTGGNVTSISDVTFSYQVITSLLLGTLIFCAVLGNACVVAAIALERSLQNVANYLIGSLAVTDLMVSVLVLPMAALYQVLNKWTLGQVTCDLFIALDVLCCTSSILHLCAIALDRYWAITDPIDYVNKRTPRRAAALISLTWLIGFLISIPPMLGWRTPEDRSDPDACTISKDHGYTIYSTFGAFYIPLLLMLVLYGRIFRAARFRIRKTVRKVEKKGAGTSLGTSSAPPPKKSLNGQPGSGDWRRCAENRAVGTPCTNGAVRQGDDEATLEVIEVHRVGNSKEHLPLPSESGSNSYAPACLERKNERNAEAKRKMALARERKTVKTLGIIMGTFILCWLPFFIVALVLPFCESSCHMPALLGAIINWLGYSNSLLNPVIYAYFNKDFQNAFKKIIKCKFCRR
Description: High affinity for the serotonin 5-HT1A receptor was established by testing the claimed compound's ability to displace [^3 H] 8-OHDPAT (dipropylaminotetralin) from the 5-HT1A serotonin receptor following the procedure of Hall et al., J. Neurochem. 44, 1685 (1985). […] The anxiolytic activity of buspirone is believed to be, at least partially, due to its 5-HT1A receptor affinity (Vander Maclen et al., Eur. J. Pharmacol. 1986, 129 (1-2) 133-130).

T1 sequence (P61169 whole entry): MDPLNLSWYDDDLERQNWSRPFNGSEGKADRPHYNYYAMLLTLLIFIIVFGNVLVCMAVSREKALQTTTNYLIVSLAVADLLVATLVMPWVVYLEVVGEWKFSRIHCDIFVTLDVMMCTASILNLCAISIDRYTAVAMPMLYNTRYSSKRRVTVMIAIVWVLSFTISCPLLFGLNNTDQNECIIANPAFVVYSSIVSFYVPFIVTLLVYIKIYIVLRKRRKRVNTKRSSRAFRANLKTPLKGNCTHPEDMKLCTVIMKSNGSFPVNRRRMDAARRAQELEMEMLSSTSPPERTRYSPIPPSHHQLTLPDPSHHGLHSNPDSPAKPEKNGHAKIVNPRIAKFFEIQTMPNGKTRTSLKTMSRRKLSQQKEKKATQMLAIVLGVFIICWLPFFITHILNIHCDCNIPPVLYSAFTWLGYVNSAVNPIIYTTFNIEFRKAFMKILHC

Compound	inhibition at 1 µM (dopamine D-2 receptor)	inhibition at 0.1 µM [2]	also measured
O=C1CC2(CCCC2)CC(=O)N1CCCCNCC1COc2ccccc2O1 (single isomer, unassigned; (-)) [(-)-MDL 72832]	–	–	binding at the 5-HT1A receptor site relative to the dextrorotary isomer (5-HT1A receptor site; (-)-isomer vs dextrorotary isomer): 32 times
O=C1CC2(CCCC2)CC(=O)N1CCCCN1CCN(c2ncccn2)CC1 [buspirone]	–	–	affinity for the 5-HT1A serotonin receptor subtype [1]: potent affinity
O=C(NC1CCN(CC2COc3ccccc3O2)CC1)C12CC3CC(CC(C3)C1)C2 (stereo not drawn) [Example 1, N-[1-[(2,3-Dihydro-1,4-benzodioxin-2-yl)methyl]-4-piperidinyl]tricyclo[3.3.1.1^3,7]decane-1-carboxamide]	29%	59%	IC50 [2]: 107 nM
O=C1CC2(CCCC2)CC(=O)N1CCCCNCC1COc2ccccc2O1 (stereo not drawn) [MDL 72832, 8-[4-(1,4-benzodioxan-2-ylmethylamino)butyl]-8-azaspiro[4.5]decane-7,9-dione]	–	–	ligand selectivity for 5-HT1A receptors (5-HT1A receptor site; Fozard et al. 1987): selective and stereospecific
O=C1C2C3C=CC(C4C=CC43)C2C(=O)N1C1CCN(CC2COc3ccccc3O2)CC1 (stereo not drawn) [Example 2, 3a, 4,4a, 6a, 7,7a-Hexahydro-2-[1-[(2,3-Dihydro-1,4-benzodioxin-2-yl)methyl]-4-piperidinyl]-4,7-etheno-1H-cyclobut[f]isoindole-1,3(2H)-dione]	–	4%	–
O=C(NCC1CCN(CC2COc3ccccc3O2)CC1)C12CC3CC(CC(C3)C1)C2 (stereo not drawn) [Example 5, N-[[1-[(2,3-Dihydro-1,4-benzodioxin-2-yl)methyl]-4-piperidinyl]methyl]tricyclo[3.3.1.1^3,7]decane-1-carboxamide]	52%	92%	–
O=C1c2ccccc2S(=O)(=O)N1C1CCN(CC2COc3ccccc3O2)CC1 (stereo not drawn) [Example 3, 2-[1-[(2,3-Dihydro-1,4-benzodioxin-2-yl)methyl]-4-piperidinyl]-1,2-benzoisothiazol-3(2H)-one 1,1-dioxide]	–	45%	–
O=C1C2CC(C(=O)N1CC1CCN(CC3COc4ccccc4O3)CC1)C1C2C2C3CC4C2C4C31 (stereo not drawn) [Example 4, 3-[[1-[(2,3-Dihydro-1,4-benzodioxin-2-yl)methyl]-4-piperidinyl]methyl]decahydro-2H-1,5-methano-6,7,9-methenopentaleno[1,2-d]azepine-2,4(3H)-dione]	97%	96%	–
